# Key:
# [1] = test system: E. coli strain CAG18491/pQE15/pREP4; assay: Translational activity: mDHFR synthesis in methionine-depleted cultures of conventional host; format: cell-based; conditions: analogue in place of methionine at the time of inoculation
# [2] = test system: E. coli cells; conditions: antagonist for methionine; cited from earlier work
# [3] = test system: B834(DE3)/pQE15/pREP4; assay: Translational activity: mDHFR synthesis in control host; format: cell-based, E. coli
# Description: (§1) Plasmid DNA from all B834(DE3)/pQE15-MRS/pREP4 cultures used for protein expression experiments was sequenced to confirm that it encoded wild-type MetRS. […] The expression plasmid also encodes an N-terminal hexahistidine sequence for mDHFR which permits purification of the target protein by immobilized metal chelate affinity chromatography (The Qiagen Expressionist, 1992, p. 45). Furthermore, mDHFR contains 8 methionine residues which can be replaced by methionine analogues. A control bacterial host, which produces only mDHFR and normal cellular levels of MetRS, was prepared by transforming B834(DE3) with pREP4 and pQE15.
# Methionine analogues were synthesized via alkylation of diethylacetamidomalonate, as previously described (As described in Example I, infra; J. C. M. van Hest, D. A. Tirrell, FEBS Lett. 1998, 428, 68-70). […]
# Cells were washed three times with M9 salts and resuspended to an optical density of 0.90 in M9 test media containing 19 amino acids plus 1) neither methionine nor analogue (negative control); 2) methionine (60 mg/liter, positive control); or 3) an analogue of interest (60 mg/liter). […] Expression of mDHFR was induced by addition of 0.4 mM isopropyl β-D-thiogalactopyranoside (IPTG), and protein synthesis was monitored after 4.5 hours.
# [4] = test system: B834(DE3)/pQE15-MRS/pREP4; format: cell-based, E. coli
# Description: A gene encoding a mutant MetRS was removed from plasmid pBSM547W305F (D. Fourmy, Y. Mechulam, S. Brunie, S. Blanquet, G. Fayat, FEBS Lett. 1991, 292, 259-263) by treatment with restriction enzymes Sac I and Kpn I. The Sac I/Kpn I fragment (2450 bp) was ligated into the cloning vector pUC19-Nhelink, which was constructed to permit the cohesive ends of the mutant MetRS gene to be changed to Nhe I. The MetRS gene with Nhe I cohesive ends was then ligated into the unique Nhe I site of the plasmid pQE15 (Qiagen, Inc., Santa Clarita, Calif., USA) to yield plasmid pQE15-W305F (FIG. 20) (SEQ ID NO.: 2).
# as §1
# Methionine analogues were synthesized via alkylation of diethylacetamidomalonate, as previously described (As described in Example I, infra; J. C. M. van Hest, D. A. Tirrell, FEBS Lett. 1998, 428, 68-70). Cultures of B834(DE3)/pQE15-MRS/pREP4 or B834(DE3)/pQE15/pREP4 or CAG18491/pQE15-MRS/pREP4 or CAG18491/pQE15/pREP4 in M9AA media were grown to an optical density of 0.90, and the cells were sedimented by centrifugation. The M9AA medium was prepared by supplementing sterile M9 medium with […] of each of the amino acids, 1 mM MgSO4, 0.2 wt % glucose, 1 mg/ml thiamine chloride, and […] calcium chloride. The antibiotics ampicillin and kanamycin were added at concentrations of 200 mg/l and 35 mg/l, respectively.
# Cells were washed three times with M9 salts and resuspended to an optical density of 0.90 in M9 test media containing 19 amino acids plus 1) neither methionine nor analogue (negative control); 2) methionine (60 mg/liter, positive control); or 3) an analogue of interest (60 mg/liter). To test the effect of increasing the level of supplementation of the analogues, a set of experiments was also conducted in which the medium was supplemented with 500 mg/liter of methionine or the amino acid analogue. Expression of mDHFR was induced by addition of 0.4 mM isopropyl β-D-thiogalactopyranoside (IPTG), and protein synthesis was monitored after 4.5 hours.
# [5] = molecular target: T1, methionyl tRNA synthetase (MetRS) (Escherichia coli, UniProt P00959); conditions: cited from earlier work
# T1 sequence (P00959 1-548 limits assumed): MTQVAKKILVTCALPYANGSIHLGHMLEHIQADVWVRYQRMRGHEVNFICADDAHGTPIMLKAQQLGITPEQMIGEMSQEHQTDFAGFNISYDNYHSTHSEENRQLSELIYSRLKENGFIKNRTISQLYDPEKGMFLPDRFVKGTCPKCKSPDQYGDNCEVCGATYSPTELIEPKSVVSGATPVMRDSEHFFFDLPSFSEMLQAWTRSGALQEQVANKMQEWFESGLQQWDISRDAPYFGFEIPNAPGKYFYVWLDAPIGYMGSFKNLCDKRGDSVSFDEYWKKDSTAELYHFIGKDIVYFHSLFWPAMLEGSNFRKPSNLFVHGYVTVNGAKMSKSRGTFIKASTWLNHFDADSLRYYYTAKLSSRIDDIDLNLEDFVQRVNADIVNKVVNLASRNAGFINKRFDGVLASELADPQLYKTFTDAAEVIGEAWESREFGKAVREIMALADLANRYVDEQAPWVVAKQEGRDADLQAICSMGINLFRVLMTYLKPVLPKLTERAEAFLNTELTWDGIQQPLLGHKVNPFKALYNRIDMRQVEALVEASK
compound,measurement,setting,value
"C=CCCC(N)C(=O)O (racemic) [Analogue 2, DL-2-amino-5-hexenoic acid]",growth of cultures in minimal media with methionine replaced by analogue at inoculation,[1],did not grow
"C/C=C\CC(N)C(=O)O (racemic) [Analogue 4, cis-2-amino-4-hexenoic acid]",effect on growth of E. coli cells,[2],inhibiting the growth
"C/C=C/CC(N)C(=O)O (racemic) [Analogue 5, trans-2-amino-4-hexenoic acid]",mDHFR expression (SDS-PAGE),[3]; 60 mg/L,not detected
same,incorporation of the analogue at the initiator position (N-terminal sequencing),[4],96±2%
same,mDHFR produced relative to cultures supplemented with methionine,[4],23%
same,overall extent of incorporation of the analogue (amino acid analysis),[4],91±2%
same,replacement of methionine (integration of NMR spectrum),[4],90±6%
same,mDHFR expression (SDS-PAGE),[4]; 60 mg/L,strong induction of mDHFR
same,methionine content by amino acid analysis,[4]; expected value 3.8 mol %,0.3 mol %
"C#CCCC(N)C(=O)O (racemic) [Analogue 3, DL-homopropargylglycine]",growth of cultures in minimal media with methionine replaced by analogue at inoculation,[1],did not grow
"CSCC[C@H](N)C(=O)O [Analogue 1, L-methionine, reference compound]","kcat, literature value",[5],13.5 s⁻¹
same,Km,"[5]; read-out: Km, previously reported, literature value",24 ± 2 µM
same,Protein yields,[3]; supplemented cultures,approximately 35 mg/liter
same,Protein yields,[4]; supplemented cultures,approximately 35 mg/liter

# Source: patent US7723070B2, “Overexpression of aminoacyl-tRNA synthetases for efficient production of engineered proteins containing amino acid analogues” (California Institute of Technology, priority 2000, dated 2010)
